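Protocol summary: plate cells (96-well), add compound at 5 concentrations, incubate 48 h, interpolate endpoints linearly. Here, GI50 denotes the concentration required for 50% inhibition of growth.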 Activity calls are given as the source filed them. No stated cut-off is given here; in the data, active = GI50 up to about 1.1 µM and inactive = higher.
Legend:
Assay in all cases: DTP human tumour cell line panel, 48 h
A498 = system: A498
A549 = system: A549
DU-145 = system: DU-145
HCT-15 = system: HCT-15
HT-29 = system: HT-29
IGROV-1 = system: IGROV-1
MDA-MB-435 = system: MDA-MB-435
Malme-3M = system: Malme-3M
OVCAR-4 = system: OVCAR-4
PC-3 = system: PC-3
RPMI-8226 = system: RPMI-8226
SF-539 = system: SF-539
SK-MEL-28 = system: SK-MEL-28
SK-MEL-5 = system: SK-MEL-5
SNB-75 = system: SNB-75
SR = system: SR
T47D = system: T47D
TK-10 = system: TK-10
MDA-MB-231 = system: MDA-MB-231
MDA-N = system: MDA-N

Measured: GI50

ON=C(CC(O)(C(F)(F)Cl)C(F)(F)Cl)CC(O)(C(F)(F)Cl)C(F)(F)Cl
3.55 µM: HCT-15
inactive: A498 2.87 µM | A549 5.46 µM | DU-145 3.28 µM | HT-29 9.14 µM | IGROV-1 6.37 µM | MDA-MB-435 4.07 µM | Malme-3M 2.99 µM | OVCAR-4 4.92 µM | PC-3 3.33 µM | RPMI-8226 2.7 µM | SF-539 2.07 µM | SK-MEL-28 6.27 µM | SK-MEL-5 4.2 µM | SNB-75 6.61 µM | SR 4.58 µM | T47D 3.37 µM | TK-10 7.66 µM

O=[N+]([O-])c1ccccc1S(=O)(=O)c1cc(Cl)cc2c1NCCC2
65.6 µM: HCT-15
inactive: A498 > 100 µM | A549 65.8 µM | DU-145 94.6 µM | HT-29 70.3 µM | IGROV-1 48.3 µM | MDA-MB-231 34.1 µM | MDA-MB-435 35.5 µM | Malme-3M 25.8 µM | OVCAR-4 > 100 µM | PC-3 52.1 µM | RPMI-8226 44.8 µM | SF-539 > 100 µM | SK-MEL-28 62.8 µM | SK-MEL-5 29.7 µM | SNB-75 43.4 µM | SR 42.8 µM | TK-10 > 100 µM

COC(=O)CC(CNC(=O)OCc1ccccc1)OCc1ccc(OC)cc1 (stereo not drawn)
> 100 µM: HCT-15
inactive: A498 > 100 µM | A549 > 100 µM | DU-145 > 100 µM | IGROV-1 > 100 µM | MDA-MB-231 > 100 µM | MDA-MB-435 > 100 µM | MDA-N > 100 µM | Malme-3M > 100 µM | OVCAR-4 88.7 µM | PC-3 99.5 µM | RPMI-8226 > 100 µM | SF-539 > 100 µM | SK-MEL-28 > 100 µM | SK-MEL-5 > 100 µM | SNB-75 > 100 µM | SR > 100 µM | TK-10 > 100 µM

COc1ccc(-c2cnoc2-c2ccc(OC)c(OC)c2)cc1OC
inactive: A498 1.6 µM | A549 3.02 µM | HT-29 1.27 µM | IGROV-1 1.29 µM | Malme-3M 2.15 µM | OVCAR-4 18.9 µM | RPMI-8226 1.54 µM | SF-539 1.2 µM | SK-MEL-28 1.62 µM | SNB-75 1.78 µM | TK-10 3.85 µM
active: SK-MEL-5 0.908 µM | SR 0.318 µM
0.4 µM: HCT-15

O=C(/C=C(\O)C(=O)O)/C=C(\O)c1ccc(Cl)cc1
inactive: A498 > 100 µM | A549 > 100 µM | HT-29 > 100 µM | IGROV-1 > 100 µM | Malme-3M > 100 µM | OVCAR-4 > 100 µM | RPMI-8226 > 100 µM | SF-539 > 100 µM | SK-MEL-28 > 100 µM | SK-MEL-5 > 100 µM | SNB-75 > 100 µM | SR > 100 µM | TK-10 > 100 µM
> 100 µM: HCT-15

COc1ccc(N2CC(=O)N(C(=O)COc3ccc(OCC(=O)N4C(=O)CN(c5ccc(OC)cc5)C4=S)cc3)C2=S)cc1
inactive: A498 > 100 µM | A549 46.9 µM | DU-145 > 100 µM | HT-29 57.9 µM | IGROV-1 15.4 µM | MDA-MB-231 > 100 µM | MDA-MB-435 > 100 µM | MDA-N > 100 µM | Malme-3M 4.47 µM | OVCAR-4 > 100 µM | PC-3 > 100 µM | RPMI-8226 87.5 µM | SK-MEL-28 > 100 µM | SK-MEL-5 45.6 µM | SNB-75 > 100 µM | TK-10 > 100 µM
> 100 µM: HCT-15

CCOC(=O)c1nc2ccc(C(F)(F)F)cc2nc1Oc1ccc(C#N)cc1
38.4 µM: HCT-15
inactive: A498 23.3 µM | DU-145 18.5 µM | HT-29 23.3 µM | IGROV-1 14.5 µM | MDA-MB-231 12.9 µM | MDA-MB-435 42.9 µM | OVCAR-4 29.6 µM | PC-3 17.3 µM | RPMI-8226 > 100 µM | SF-539 19.5 µM | SK-MEL-28 43.1 µM | SK-MEL-5 38.3 µM | SNB-75 14.5 µM | SR 81.5 µM | T47D 28.4 µM | TK-10 30.1 µM

CC(=O)c1cccc(NC(=O)C(=O)Nn2c(N)nnc2N)c1
inactive: A498 > 100 µM | A549 > 100 µM | HT-29 > 100 µM | IGROV-1 > 100 µM | Malme-3M > 100 µM | OVCAR-4 > 100 µM | RPMI-8226 > 100 µM | SF-539 > 100 µM | SK-MEL-28 > 100 µM | SK-MEL-5 > 100 µM | SNB-75 > 100 µM | SR > 100 µM | TK-10 > 100 µM
> 100 µM: HCT-15

O=S(=O)(O)c1ccc(/N=N/c2ccc(/N=N/c3c(O)ccc4ccccc34)c(S(=O)(=O)O)c2)cc1
inactive: A549 > 100 µM | HT-29 > 100 µM | IGROV-1 > 100 µM | MDA-MB-231 > 100 µM | MDA-MB-435 > 100 µM | Malme-3M > 100 µM | PC-3 > 100 µM | RPMI-8226 > 100 µM | SF-539 > 100 µM | SK-MEL-28 > 100 µM | SK-MEL-5 > 100 µM | SNB-75 62.1 µM | SR > 100 µM | TK-10 > 100 µM
> 100 µM: HCT-15

O=C1/C(=C/c2ccccc2)CN(C(=O)C(F)(F)F)C/C1=C\c1ccccc1
2.03 µM: HCT-15
inactive: A498 1.98 µM | A549 3.17 µM | HT-29 1.3 µM | IGROV-1 2.29 µM | Malme-3M 3.72 µM | OVCAR-4 2.44 µM | SF-539 1.86 µM | SK-MEL-28 1.83 µM | SK-MEL-5 1.71 µM | SNB-75 6.58 µM | SR 2.02 µM | TK-10 3.61 µM
active: RPMI-8226 0.165 µM

O=C1/C(=C/c2ccccc2)CCCc2ccccc21
16.2 µM: HCT-15
inactive: A549 22.9 µM | DU-145 23.2 µM | HT-29 17.7 µM | IGROV-1 19.6 µM | MDA-MB-231 20.1 µM | MDA-MB-435 18.3 µM | MDA-N 19 µM | Malme-3M 20.8 µM | OVCAR-4 17.3 µM | PC-3 18.1 µM | RPMI-8226 16.6 µM | SF-539 17.9 µM | SK-MEL-28 17.4 µM | SNB-75 35.3 µM | SR 14.4 µM | TK-10 19.8 µM

CC[C@H](CC[C@@H](C)[C@H]1CC[C@H]2[C@@H]3CC=C4C[C@@H](O)CC[C@]4(C)[C@H]3CC[C@]12C)C(C)C [BETA-SITOSTEROL]
inactive: A549 > 100 µM | DU-145 > 100 µM | HT-29 > 100 µM | IGROV-1 > 100 µM | MDA-MB-231 > 100 µM | MDA-MB-435 > 100 µM | MDA-N > 100 µM | Malme-3M > 100 µM | OVCAR-4 > 100 µM | PC-3 > 100 µM | RPMI-8226 > 100 µM | SF-539 > 100 µM | SK-MEL-28 > 100 µM | SK-MEL-5 > 100 µM | SNB-75 > 100 µM | TK-10 > 100 µM
> 100 µM: HCT-15
